Experimental data taken from patent US11718611B2, “Benzenesulfonylbenazamide compound for inhibiting BCL-2 protein and composition and use thereof” (Shenzhen TargetRx, Inc., priority 2017, dated 2023).

How the values were obtained:
[1] = Liver microsomal metabolism experiment (metabolic stability); format: in vitro ADME; details: pH 7.4; mouse liver microsomes 0.5 mg/mL, compound 1 μM
Procedure: Microsome assay: mouse liver microsomes: 0.5 mg/mL, Xenotech; coenzyme (NADPH/NADH): 1 mM, Sigma Life Science; magnesium chloride: 5 mM, 100 mM phosphate buffer (pH 7.4).
Preparation of stock solutions: Powder of the compounds were accurately weighed and dissolved in DMSO to 5 mM.
Preparation of phosphate buffer (100 mM, pH7.4): A pre-prepared 0.5M potassium dihydrogen phosphate (150 mL) was mixed with 0.5M dibasic potassium phosphate (700 mL). The pH of the mixture was adjusted to 7.4 with 0.5M dibasic potassium phosphate solution. The mixture was diluted 5-fold with ultrapure water before use, and magnesium chloride was added to obtain a phosphate buffer (100 mM) containing 100 mM potassium phosphate, 3.3 mM magnesium chloride, pH 7.4.
A NADPH regeneration system solution (containing 6.5 mM NADP, 16.5 mM G-6-P, 3 U/mL G-6-P D, 3.3 mM magnesium chloride) was prepared and placed on wet ice prior to use.
Preparation of stop solution: an acetonitrile solution containing 50 ng/mL propranolol hydrochloride and 200 ng/mL tolbutamide (internal standard). 25057.5 μL of phosphate buffer (pH 7.4) was taken into a 50 mL centrifuge tube, to which 812.5 μL mouse liver microsomes were added, and mixed to obtain a liver microsome dilution with a protein concentration of 0.625 mg/mL.
Incubation of the samples: The stock solutions of the respective compounds were respectively diluted to 0.25 mM with an aqueous solution containing 70% acetonitrile, and used as a working solution, ready for use. 398 μL of the dilution of human liver microsomes or rat mouse liver microsomes were added to 96-well incubation plates (N=2), respectively, and 2 μL of 0.25 mM working solution was added and mixed.
Metabolic stability assay: 300 μL of pre-chilled stop solution was added to each well of 96-well deep well plates and placed on ice as stop plates. The 96-well incubation plates and NADPH regeneration system were placed in a 37° C. water bath box, shaken at 100 rpm and pre-incubated for 5 min. 80 μL of incubation solution was taken out from each well of the incubation plates and added to the stop plates, mixed, and replenished with 20 μL of NADPH regeneration system solution as a 0-min sample. 80 μL of NADPH regeneration system solution was added to each well of the incubation plates to start the reaction and start counting. […] Separately, 100 μL of the reaction solutions was taken at 10, 30, and 90 min reaction, respectively, added to stop plates, and vortexed for 3 minutes to terminate the reaction. The stop plates were centrifuged at 5000×g at 4° C. for 10 min. 100 μL of the supernatant was added to a 96-well plate to which 100 μL of distilled water was previously added, mixed, and analyzed by LC-MS/MS.
Data analysis: The peak areas of the corresponding compounds and internal standard were detected by LC-MS/MS system, and the ratio of the peak area of the compounds to the internal standard was calculated.

[2] = Pharmacokinetic experiment in rats; format: in vivo, SD rat; details: male SD rats, i.g., 3 mg/kg; for AUC(0-t) / Cmax / MRT / Tmax: rat, plasma, po
Procedure: Experimental Objective: To investigate the pharmacokinetic behavior of the compounds of the present disclosure after the rats being administered with the test compounds.
Species and strain: SD rat grade: SPF grade
Gender and quantity: male, 6
Experimental procedures: Before blood samples were collected, 20 μL of 2 M sodium fluoride solution (esterase inhibitor) was previously added to an EDTA-K2 anticoagulant tube, dried in an 80° C. oven, and placed in a 4° C. refrigerator.
Rats (male, weighing 187 to 197 g) were randomly divided into 2 groups, and were fasted overnight in the afternoon before the experiment but were allowed to drink water freely. Food was given 4 hours after the administration. Group A was given Venetoclaxr (3 mg/kg), and group B was given example compounds 1 to 7 (3 mg/kg). About 100-200 μL of blood was taken from the orbital vein of rats at 15 min, 30 min, 1, 2, 3, 5, 8 and 10 h after administration, placed in a 0.5 mL Eppendorf tube with EDTA-K2 anticoagulant and mixed immediately. After anticoagulation, the tube was gently inverted 5-6 times as quickly as possible. After the blood was taken, it was placed in an ice box, and then within 30 min, the blood sample was centrifuged for 10 min at 4000 rpm and 4° C. to separate the plasma. Immediately after collection of all plasma, it was stored at −20° C. The concentration of the drug in plasma at each time point was determined after sample collection at all time points.

Structure (SMILES) | half-life at 1 μM [1] [h] | microsomal CLint at 1 μM [1] [µL/min/mg] | Cl—pred [2] [mL/min/kg] | F [2] [%] | AUC(0-t) [2] [ng·h/mL] | Cmax [2] [ng/mL] | MRT [2] [h] | Tmax [2] [h]
[2H]C([2H])(Nc1ccc(S(=O)(=O)NC(=O)c2ccc(N3C([2H])([2H])C([2H])([2H])N(CC4=C(c5ccc(Cl)cc5)CC(C)(C)CC4)C([2H])([2H])C3([2H])[2H])cc2Oc2cnc3[nH]ccc3c2)cc1[N+](=O)[O-])C1CCOCC1 (single isomer, unassigned) [Compound T-6, 4-(4-{[2-(4-chlorophenyl)-4,4-dimethylcyclohex-1-en-1-yl]methyl}piperazin-1-yl-2,2,3,3,5,5,6,6-d8)-N-({3-nitro-4-[(tetrahydro-2H-pyran-4-ylmethyl-d2)amino]phenyl}sulfonyl)-2-(1H-pyrrolo[2,3-b]pyridin-5-yloxy)benzamide] | 1.3 | 17.8 | – | – | – | – | – | –
[2H]C([2H])(C1=C(c2ccc(Cl)cc2)CC(C)(C)CC1)N1C([2H])([2H])C([2H])([2H])N(c2ccc(C(=O)NS(=O)(=O)c3ccc(NCC4CCOCC4)c([N+](=O)[O-])c3)c(Oc3cnc4[nH]ccc4c3)c2)C([2H])([2H])C1([2H])[2H] (single isomer, unassigned) [Compound T-4, 4-(4-{[2-(4-chlorophenyl)-4,4-dimethylcyclohex-1-en-1-yl]-methyl-d2}piperazin-1-yl-2,2,3,3,5,5,6,6-d8)-N-({3-nitro-4-[(tetrahydro-2H-pyran-4-ylmethyl)amino]phenyl}sulfonyl)-2-(1H-pyrrolo[2,3-b]pyridin-5-yloxy)benzamide] | 1.12 | 20.7 | – | – | – | – | – | –
[2H]C1([2H])N(CC2=C(c3ccc(Cl)cc3)CC(C)(C)CC2)C([2H])([2H])C([2H])([2H])N(c2ccc(C(=O)NS(=O)(=O)c3ccc(NCC4CCOCC4)c([N+](=O)[O-])c3)c(Oc3cnc4[nH]ccc4c3)c2)C1([2H])[2H] (single isomer, unassigned) [Compound T-5, 4-(4-{[2-(4-chlorophenyl)-4,4-dimethylcyclohex-1-en-1-yl]methyl}piperazin-1-yl-2,2,3,3,5,5,6,6-d8)-N-({3-nitro-4-[(tetrahydro-2H-pyran-4-ylmethyl)amino]phenyl}sulfonyl)-2-(1H-pyrrolo[2,3-b]pyridin-5-yloxy)benzamide] | 1.52 | 15.2 | – | – | – | – | – | –
[2H]C([2H])(Nc1ccc(S(=O)(=O)NC(=O)c2ccc(N3C([2H])([2H])C([2H])([2H])N(C([2H])([2H])C4=C(c5ccc(Cl)cc5)CC(C)(C)CC4)C([2H])([2H])C3([2H])[2H])cc2Oc2cnc3[nH]ccc3c2)cc1[N+](=O)[O-])C1CCOCC1 (single isomer, unassigned) [Compound T-7, 4-(4-{[2-(4-chlorophenyl)-4,4-dimethylcyclohex-1-en-1-yl]methyl-d2}piperazin-1-yl-2,2,3,3,5,5,6,6-d8)-N-({3-nitro-4-[(tetrahydro-2H-pyran-4-ylmethyl-d2)amino]phenyl}sulfonyl)-2-(1H-pyrrolo[2,3-b]pyridin-5-yloxy)benzamide] | 5.11 | 4.5 | – | – | – | – | – | –

The remaining lines, values ahead:

half-life at 1 μM [1] [h] | microsomal CLint at 1 μM [1] [µL/min/mg] | Cl—pred [2] [mL/min/kg] | F [2] [%] | AUC(0-t) [2] [ng·h/mL] | Cmax [2] [ng/mL] | MRT [2] [h] | Tmax [2] [h] | Structure (SMILES)
1.25 | 18.4 | 40.2 | 7.10 | 4430 | 680 | 5.07 | 3.33 | [2H]C([2H])(Nc1ccc(S(=O)(=O)NC(=O)c2ccc(N3CCN(CC4=C(c5ccc(Cl)cc5)CC(C)(C)CC4)CC3)cc2Oc2cnc3[nH]ccc3c2)cc1[N+](=O)[O-])C1CCOCC1 (single isomer, unassigned) [Compound T-3, 4-(4-{[2-(4-chlorophenyl)-4,4-dimethylcyclohex-1-en-1-yl]methyl}piperazin-1-yl)-N-({3-nitro-4-[(tetrahydro-2H-pyran-4-ylmethyl-d2)amino]phenyl}sulfonyl)-2-(1H-pyrrolo[2,3-b]pyridin-5-yloxy)benzamide]
2.38 | 9.7 | – | – | – | – | – | – | [2H]C([2H])(Nc1ccc(S(=O)(=O)NC(=O)c2ccc(N3CCN(C([2H])([2H])C4=C(c5ccc(Cl)cc5)CC(C)(C)CC4)CC3)cc2Oc2cnc3[nH]ccc3c2)cc1[N+](=O)[O-])C1CCOCC1 (single isomer, unassigned) [Compound T-2, 4-(4-{[2-(4-chlorophenyl)-4,4-dimethylcyclohex-1-en-1-yl]methyl-d2}piperazin-1-yl)-N-({3-nitro-4-[(tetrahydro-2H-pyran-4-ylmethyl-d2)amino]phenyl}sulfonyl)-2-(1H-pyrrolo[2,3-b]pyridin-5-yloxy)benzamide]
4.07 | 5.7 | – | – | – | – | – | – | [2H]C([2H])(C1=C(c2ccc(Cl)cc2)CC(C)(C)CC1)N1CCN(c2ccc(C(=O)NS(=O)(=O)c3ccc(NCC4CCOCC4)c([N+](=O)[O-])c3)c(Oc3cnc4[nH]ccc4c3)c2)CC1 (single isomer, unassigned) [Compound T-1, 4-(4-{[2-(4-chlorophenyl)-4,4-dimethylcyclohex-1-en-1-yl]methyl-d2}piperazin-1-yl)-N-({3-nitro-4-[(tetrahydro-2H-pyran-4-ylmethyl)amino]phenyl}sulfonyl)-2-(1H-pyrrolo[2,3-b]pyridin-5-yloxy)benzamide]
1.35 | 17.1 | 54.7 | 3.47 | 3060 | 478 | 5.22 | 3.33 | CC1(C)CCC(CN2CCN(c3ccc(C(=O)NS(=O)(=O)c4ccc(NCC5CCOCC5)c([N+](=O)[O-])c4)c(Oc4cnc5[nH]ccc5c4)c3)CC2)=C(c2ccc(Cl)cc2)C1 [Venetoclax, 4-(4-{[2-(4-chlorophenyl)-4,4-dimethylcyclohex-1-en-1-yl]methyl}piperazin-1-yl)-N-({3-nitro-4-[(tetrahydro-2H-pyran-4-ylmethyl)amino]phenyl}sulfonyl)-2-(1H-pyrrolo[2,3-b]pyridin-5-yloxy)benzamide, reference compound]
